Columns and labels:
[1] = for Histological evidence of toxicity: GI, affected/total (fraction) / Histological evidence of toxicity: Heart, affected/total (fraction) / Histological evidence of toxicity: Liver, Glycogen, affected/total (fraction) / Histological evidence of toxicity: Liver, Vaculation, affected/total (fraction) / Histological evidence of toxicity: Pancreas, affected/total (fraction): C57BL6/J; for Histological evidence of toxicity: GI, affected/total (fraction) / Histological evidence of toxicity: Heart, affected/total (fraction) / Histological evidence of toxicity: Liver, Glycogen, affected/total (fraction) / Histological evidence of toxicity: Liver, Vaculation, affected/total (fraction) / Histological evidence of toxicity: Pancreas, affected/total (fraction) / Lethality or lethargy: 7 days; for Lethality or lethargy: super-therapeutic doses
8505C cells [2] = assay: Mouse orthotopic xenograft model of ATC, survival; details: for Median Survival: Nu/Nu mice, thyroid orthotopic 8505C, control 22 days; for Hazard ratio: relative Control (untreated) mice, orthotopic 8505C
THJ-21T = assay: 72-hr survival dose-response of ATC cell line THJ-21T; format: cell-based; details: Homo sapiens
8505C = assay: Flow cytometric sub-G1 programmed cell death; format: cell-based, human; details: short-term treatment, S10, Q20, S10Q20
THJ-29T = assay: 72-hr survival dose-response of ATC cell line THJ-29T; format: cell-based; details: Homo sapiens
NFκB-p65 (RelA) = assay: Western blot of NFκB-p65/RelA expression; format: cell-based, human; details: 8505C and THJ-16T cells, S 10 µM, Q 20 µM
8505C cells [3] = assay: CellTiter-Glo dose-response in 8505C cells after siRNA knockdown; format: cell-based, human; details: for IC50: Homo sapiens, 72 h
THJ-16T = assay: 72-hr survival dose-response of ATC cell line THJ-16T

| Structure (SMILES) | Histological evidence of toxicity: GI, affected/total (fraction) ([1]; mouse, in vivo) | Histological evidence of toxicity: Heart, affected/total (fraction) ([1]; mouse, in vivo) | Histological evidence of toxicity: Liver, Glycogen, affected/total (fraction) ([1]; mouse, in vivo) | Histological evidence of toxicity: Liver, Vaculation, affected/total (fraction) ([1]; mouse, in vivo) | Histological evidence of toxicity: Pancreas, affected/total (fraction) ([1]; mouse, in vivo) | Lethality or lethargy [1] | Median Survival (8505C cells [2]) [days] | Hazard ratio (8505C cells [2]) | IC50 (THJ-21T) [µM] | sub-G1 DNA (8505C) | IC50 (THJ-29T) [µM] | also measured |
| --- | --- | --- | --- | --- | --- | --- | --- | --- | --- | --- | --- | --- |
| COc1cccc2c1C(=O)c1c(O)c3c(c(O)c1C2=O)C[C@@](O)(C(=O)CO)C[C@@H]3O[C@H]1C[C@H](N)[C@H](O)[C@H](C)O1 [Doxorubicin] | 4/5 (0.80) | 0/5 (0) | 3/5 (0.60) | 4/5 (0.80) | 4/5 (0.80) | No lethality or lethargy | 31 | 0.709 | – | – | – | Level of platelets in blood ([1]; mouse, in vivo): increased level; Number of RBC's and hemoglobin (Hgb) ([1]; mouse, in vivo): reduction |
| CCN(CC)CCCC(C)Nc1c2ccc(Cl)cc2nc2ccc(OC)cc12 (centres unmarked) [Quinacrine] | 0/4 (0) | 1/5 (0.20) | 3/4 (0.75) | 3/4 (0.75) | 0/4 (0) | – | 32 | – | 15.4 | Increased | 12.7 | Expression of NFκB-p65 (RelA) (NFκB-p65 (RelA)): inhibited; Impact of p65/RelA siRNA on survival dose-response relationship (8505C cells [3]): did not have any significant impact; Effect of Mcl-1 knockdown on IC50 (8505C cells [3]; Mcl-1 siRNA): did not affect; IC50 (THJ-16T; Homo sapiens, 72 h): 18.4 µM |
| CNC(=O)c1cc(Oc2ccc(NC(=O)Nc3ccc(Cl)c(C(F)(F)F)c3)cc2)ccn1 [Sorafenib] | 0/5 (0) | 0/5 (0) | 4/5 (0.80) | 4/5 (0.80) | 5/5 (1.00) | No lethality or lethargy | 26 | 0.846 | 12.4 | Increased | 4.5 | Increased sensitization by p65/RelA siRNA compared to Scr siRNA (8505C cells [3]): approximately 2 fold; IC50 (8505C cells [3]; scrambled (Scr) siRNA): 10.5 µM; IC50 (8505C cells [3]; siRNA targeting p65/RelA): 5.15 µM; IC50 (THJ-16T; THJ-16T, 72-hr survival): 31 µM |

From paper PMC7524204 (Clinical cancer research : an official journal of the …, 2016)
